Reference: PMC6932632 (Biochemistry, 2019)

Biological target: T1, p38γ (Homo sapiens, UniProt P53778)
T1 sequence (P53778 1-367): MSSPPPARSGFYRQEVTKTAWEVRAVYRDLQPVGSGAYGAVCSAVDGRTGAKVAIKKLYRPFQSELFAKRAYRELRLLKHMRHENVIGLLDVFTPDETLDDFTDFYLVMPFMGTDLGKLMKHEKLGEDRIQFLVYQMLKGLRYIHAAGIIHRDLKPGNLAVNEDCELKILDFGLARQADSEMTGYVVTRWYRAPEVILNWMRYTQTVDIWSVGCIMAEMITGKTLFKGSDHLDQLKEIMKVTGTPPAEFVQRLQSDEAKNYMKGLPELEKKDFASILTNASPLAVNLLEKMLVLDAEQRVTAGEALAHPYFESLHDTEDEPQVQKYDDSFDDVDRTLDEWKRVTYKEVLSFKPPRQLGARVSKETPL
Assay: NMR titration
Format: binding

Nc1ncnc2c1ncn2[C@@H]1O[C@H](COP(=O)(O)OP(=O)(O)OP(=O)(O)O)[C@@H](O)[C@H]1O [ATP]
Kd: 770 µM
